Measured values from US20050165024A1, “Urea derivatives as kinase modulators” (Ambit Biosciences Corporation, priority 2003, published 2005).
pKd: −log10 of the molar value.

These compounds were tested against T1, MKNK2 (DKIN) (Homo sapiens, UniProt Q9HBH9) (assay: Binding constant (Kd) measurement, phage-displayed kinase competition binding assay: MKNK2). Conditions: Kd class symbols.
T1 construct: (DKIN); made in house
T1 sequence (Q9HBH9 84-388 limits assumed): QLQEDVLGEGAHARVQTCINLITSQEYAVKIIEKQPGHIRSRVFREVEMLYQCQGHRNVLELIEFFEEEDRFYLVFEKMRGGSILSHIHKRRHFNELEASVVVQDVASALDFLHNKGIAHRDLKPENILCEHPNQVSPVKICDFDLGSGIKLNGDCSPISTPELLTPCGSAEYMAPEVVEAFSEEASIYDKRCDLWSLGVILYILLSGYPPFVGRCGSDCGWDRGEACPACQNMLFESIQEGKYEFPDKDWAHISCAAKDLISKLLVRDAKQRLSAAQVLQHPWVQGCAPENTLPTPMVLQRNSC
Source text: (§1) The term “ND” represents non-determined values.
`Cc1cnc(C(=O)Nc2ccc(NC(=O)Nc3cc(C(C)(C)C)on3)cc2)c(C(=O)O)n1` gave a pKd of 5.00 to 6.00. With `COc1cc2nc(Cl)nc(Nc3ccc(NC(=O)Nc4cc(C(C)(C)C)on4)cc3)c2cc1OC` [drawing 684] the pKd was 5.00 to 6.00. Compound `CC(C)(C)c1cc(NC(=O)Nc2ccc(Nc3ncnc4[nH]cnc34)cc2)no1` [drawing 686] has a pKd of over 7.00. `CC(C)(C)c1cc(NC(=O)Nc2ccc(NC(=O)c3ccc4ncccc4c3)cc2)no1` gave a pKd of 5.00 to 6.00. Work on `Cc1cnc(C(=O)Nc2ccc(NC(=O)Nc3cc(C(C)(C)C)on3)cc2)cn1` yielded a pKd of 6.00 to 7.00. `CC(C)(C)c1cc(NC(=O)Nc2ccc(Nc3nc(N)nc4[nH]cnc34)cc2)no1` [drawing 691] showed a pKd of over 7.00. `CC(C)(C)c1cc(NC(=O)Nc2ccc(NC(=O)c3ncccc3O)cc2)no1` [drawing 687] gave a pKd of over 7.00. Compound `COc1cc(OC)nc(Oc2cccc(C(=O)Nc3ccc(NC(=O)Nc4cc(C(C)(C)C)on4)cc3)c2)n1` [drawing 693] has a pKd of 6.00 to 7.00. `CC(C)(C)c1cc(NC(=O)Nc2ccc(NC(=O)c3cnnc4ccccc34)cc2)no1` showed a pKd of over 7.00. `CC(C)(C)c1cc(NC(=O)Oc2ccc(NC(=O)c3nccnc3N)cc2)no1` gave a pKd of 6.00 to 7.00. For `CC(C)(C)c1cc(NC(=O)Nc2ccc(NC(=O)c3cccc4nsnc34)cc2)no1`, the pKd was 5.00 to 6.00. In the case of `CC(C)(C)c1cc(NC(=O)Nc2ccc(NC(=O)c3cscn3)cc2)no1`, the pKd was 6.00 to 7.00. `CC(C)(C)c1cc(NC(=O)Nc2ccc(Nc3nc(Cl)nc4[nH]cnc34)cc2)no1` [drawing 682] gave a pKd of 5.00 to 6.00. `CC(C)(C)c1cc(NC(=O)Nc2ccc(NC(=O)c3cnc4ccccc4c3)cc2)no1` [drawing 689] was tested, and the pKd was 5.00 to 6.00. For `COc1cc2ncnc(Nc3ccc(NC(=O)Nc4cc(C(C)(C)C)on4)cc3)c2cc1OC` [drawing 692], the pKd was over 7.00.

Each compound was assayed against T2, p38-alpha(FKIN) (Homo sapiens, UniProt Q16539) (assay: Binding constant (Kd) measurement, phage-displayed kinase competition binding assay: p38). Conditions: Kd class symbols.
T2 construct: made in house
T2 sequence (Q16539 whole entry): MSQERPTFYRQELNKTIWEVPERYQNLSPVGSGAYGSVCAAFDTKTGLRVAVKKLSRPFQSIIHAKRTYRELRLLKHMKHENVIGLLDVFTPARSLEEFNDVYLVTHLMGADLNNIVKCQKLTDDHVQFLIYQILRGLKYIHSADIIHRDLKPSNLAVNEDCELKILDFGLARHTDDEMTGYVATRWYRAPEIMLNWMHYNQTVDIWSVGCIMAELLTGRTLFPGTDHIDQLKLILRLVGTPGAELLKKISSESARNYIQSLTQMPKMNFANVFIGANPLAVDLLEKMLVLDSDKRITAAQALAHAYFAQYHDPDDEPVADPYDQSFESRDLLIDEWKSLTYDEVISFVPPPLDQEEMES
Source text: as §1
Work on `CC(C)(C)c1cc(NC(=O)Nc2ccc(Cl)cc2)no1` yielded a pKd of 5.00 to 6.00. For `CC(C)(C)c1cc(NC(=O)NCc2cccc(Cl)c2)no1`, the pKd was 6.00 to 7.00. `CC(C)(C)c1cc(NC(=O)Nc2ccc(Br)cc2F)on1` showed a pKd of 6.00 to 7.00. `NC(=O)c1cc(Oc2ccc(Nc3c(Nc4ccc(Cl)c(C(F)(F)F)c4)c(=O)c3=O)cc2)ccn1` showed a pKd of 6.00 to 7.00. `COc1ccc(NC(=O)Nc2cc(C(C)(C)C)nn2-c2ccc(C)cc2)cc1` gave a pKd of 6.00 to 7.00. For `Cc1c(Cl)cccc1NC(=O)Nc1cc(C(C)(C)C)on1`, the pKd was 6.00 to 7.00. Work on `CC(C)(C)c1cc(NC(=O)Nc2ccccc2)no1` yielded a pKd of 5.00 to 6.00. In the case of `CSc1ccc(NC(=O)Nc2cc(C(C)(C)C)on2)cc1`, the pKd was 5.00 to 6.00. Compound `CC(C)(C)c1cc(NC(=O)Nc2ccc(NC(=O)c3cnc4ccccc4c3)cc2)no1` [drawing 680] has a pKd of 5.00 to 6.00. With `Cc1ccc(-n2nc(C(C)(C)C)cc2NC(=O)Nc2ccc(Cl)c(C(F)(F)F)c2)cc1` the pKd was 6.00 to 7.00. `CC(C)(C)c1cc(NC(=O)Nc2ccc(NC(=O)c3cccnc3)cc2)no1` gave a pKd of 6.00 to 7.00. Work on `Cn1nc(C(C)(C)C)cc1NC(=O)Nc1cccc2ccccc12` yielded a pKd of 6.00 to 7.00. For `Cc1ccc(-n2nc(C(C)(C)C)cc2NC(=O)Nc2ccc(Cl)cc2)cc1`, the pKd was over 7.00. Work on `O=C(Nc1ccccc1)Nc1cc(Cl)c([N+](=O)O)cc1O` yielded a pKd of 6.00 to 7.00. Compound `Cc1ccc(-n2nc(C(C)(C)C)cc2NC(=O)Nc2ccc(OCCN3CCOC(CO)C3)c3ccccc23)cc1` (stereo not drawn) has a pKd of over 7.00. In the case of `CC(C)(C)c1cc(NC(=O)Nc2ccc(Cl)cc2)on1`, the pKd was 5.00 to 6.00. Compound `COc1ccc(NC(=O)Nc2cc(C(C)(C)C)no2)cc1` has a pKd of 5.00 to 6.00. With `Cc1ccc(-n2nc(C(C)(C)C)cc2NC(=O)Nc2ccc(OCc3ccccc3)cc2)cc1` the pKd was 6.00 to 7.00. `CC(C)(C)c1cc(NC(=O)Nc2ccc(O)cc2)no1` gave a pKd of 5.00 to 6.00. `C[S+]([O-])c1ccc(NC(=O)Nc2cc(C(C)(C)C)on2)cc1` (stereo not drawn) gave a pKd of 5.00 to 6.00. `Cc1ccc(-n2nc(C(C)(C)C)cc2NC(=O)Nc2ccc(O)cc2)cc1` was tested, and the pKd was 6.00 to 7.00. `CSc1ccc(NC(=O)Nc2cc(C(C)(C)C)no2)cc1` gave a pKd of 5.00 to 6.00. `Cc1ccc(-n2nc(C(C)(C)C)cc2NC(=O)Nc2cc(C(C)(C)C)on2)cc1` gave a pKd of 6.00 to 7.00. Compound `COc1ccc(NC(=O)Nc2cc(C(C)(C)C)on2)cc1` has a pKd of 5.00 to 6.00. For `Cc1ccc(-n2nc(C(C)(C)C)cc2NC(=O)Nc2ccc(Br)cc2C(F)(F)F)cc1`, the pKd was 6.00 to 7.00. Work on `CC(C)(C)c1cc(NC(=O)Nc2ccc(OCCN3CCCCC3)c3ccccc23)no1` yielded a pKd of over 7.00. In the case of `Cc1ccc(NC(=O)Nc2cc(C(C)(C)C)on2)cc1`, the pKd was 5.00 to 6.00.

What follows are compounds tested against T3, STK10(DKIN) (Homo sapiens, UniProt O94804) (assay: Binding constant (Kd) measurement, phage-displayed kinase competition binding assay: STK10). Conditions: Kd class symbols.
T3 construct: STK10(DKIN); made in house
T3 sequence (O94804 36-294 limits assumed): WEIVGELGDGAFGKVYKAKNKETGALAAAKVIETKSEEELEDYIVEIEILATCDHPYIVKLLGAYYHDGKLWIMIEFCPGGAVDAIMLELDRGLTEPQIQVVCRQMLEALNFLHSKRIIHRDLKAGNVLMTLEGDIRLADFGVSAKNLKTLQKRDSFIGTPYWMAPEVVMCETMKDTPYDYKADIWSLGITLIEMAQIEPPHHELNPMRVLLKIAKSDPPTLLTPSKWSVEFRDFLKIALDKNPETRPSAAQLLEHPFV
Source text: as §1
`CC(C)(C)c1cc(NC(=O)Nc2ccc(Nc3nc(N)nc4[nH]cnc34)cc2)no1` [drawing 703] was tested, and the pKd was 6.00 to 7.00. With `COc1cc2nc(Cl)nc(Nc3ccc(NC(=O)Nc4cc(C(C)(C)C)on4)cc3)c2cc1OC` [drawing 699] the pKd was over 7.00. Compound `COc1cc2ncnc(Nc3ccc(NC(=O)Nc4cc(C(C)(C)C)on4)cc3)c2cc1OC` [drawing 698] has a pKd of over 7.00. `CC(C)(C)c1cc(NC(=O)Nc2ccc(Nc3ncnc4[nH]cnc34)cc2)no1` [drawing 701] was tested, and the pKd was over 7.00. For `CC(C)(C)c1cc(NC(=O)Nc2ccc(N3C(=O)c4ccccc4C3=O)cc2)no1`, the pKd was over 7.00. Work on `CC(C)(C)c1cc(NC(=O)Nc2ccc(NC(=O)c3nccnc3N)cc2)no1` yielded a pKd of 6.00 to 7.00. With `CC(C)(C)c1cc(NC(=O)Nc2ccc(NC(=O)c3ncccc3O)cc2)no1` [drawing 696] the pKd was 6.00 to 7.00. `COc1cc(OC)nc(Oc2cccc(C(=O)Nc3ccc(NC(=O)Nc4cc(C(C)(C)C)on4)cc3)c2)n1` [drawing 700] showed a pKd of 5.00 to 6.00. `CC(C)(C)c1cc(NC(=O)Nc2ccc(Nc3nc(Cl)nc4[nH]cnc34)cc2)no1` [drawing 697] gave a pKd of 6.00 to 7.00.
